According to article PMC12475274, “Harnessing indole scaffolds to identify small-molecule IRE1α inhibitors modulating XBP1 mRNA splicing” (Nature Communications, 2025):
“And” between values parts separate entries of the source, which are not always exact repeats. Equal values may be shown once. Read-outs that look alike come from different tables or passages of the source.

Tests used:
[1] = tested on: A549 cells; assay: Cell viability assay (CCK-8), A549; assay type: cell-based, human; set-up: key to A549 viability: % viability vs DMSO-treated cells, blank-corrected A450; conditions: in % (unit assumed)
Protocol: (§1) Cells were collected and seeded into 96-well plates at a density of 2000–4000 cells per well and cultured overnight to allow cells to adhere. After adherence, cells were treated with the indicated compounds for 72 h. Then 20 μL CCK-8 solution (Vazyme, A311) was added into each well and incubated at 37 °C for 2–4 h. Absorbance was detected at a wavelength of 450 nm using a TECAN plate reader. Cell viability was calculated with the equation: Cell viability (%) = 100(Absorbance of treated cell - Absorbance of Blank control)/ (Absorbance of DMSO-treated cells - Absorbance of Blank control); Blank control: medium and CCK-8 solution, no cells.

[2] = tested on: HCT 116 cells; assay: Cell viability assay (CCK-8), HCT 116; assay type: cell-based, human; set-up: key to HCT 116 viability: % viability vs DMSO-treated cells, blank-corrected A450; conditions: in % (unit assumed)
Protocol: as §1

[3] = tested on: MDA-MB-468 cells; assay: Cell viability assay (CCK-8), MDA-MB-468; assay type: cell-based, human; set-up: key to MDMB-468 viability: % viability vs DMSO-treated cells, blank-corrected A450; conditions: in % (unit assumed)
Protocol: as §1

[4] = tested on: HT-29 cells; assay: Cell viability assay (CCK-8), HT-29; assay type: cell-based, human; set-up: key to HT-29 viability: % viability vs DMSO-treated cells, blank-corrected A450; conditions: in % (unit assumed)
Protocol: as §1

[5] = molecular target: T1, dephosphorylated IRE1α (547–977) (Homo sapiens, UniProt O75460); assay: FRET-based IRE1α RNase activity assay, dephosphorylated IRE1α; assay type: biochemical
T1 construct: Human IRE1α kinase and RNase domain (residues 547–977) was subcloned into pLIB plasmid; His tag (with TEV cleavage site) (N, cleaved yes); made in house; host or cells: Sf9 insect cells, baculovirus (Bac-to-Bac)
T1 sequence (O75460 547-977): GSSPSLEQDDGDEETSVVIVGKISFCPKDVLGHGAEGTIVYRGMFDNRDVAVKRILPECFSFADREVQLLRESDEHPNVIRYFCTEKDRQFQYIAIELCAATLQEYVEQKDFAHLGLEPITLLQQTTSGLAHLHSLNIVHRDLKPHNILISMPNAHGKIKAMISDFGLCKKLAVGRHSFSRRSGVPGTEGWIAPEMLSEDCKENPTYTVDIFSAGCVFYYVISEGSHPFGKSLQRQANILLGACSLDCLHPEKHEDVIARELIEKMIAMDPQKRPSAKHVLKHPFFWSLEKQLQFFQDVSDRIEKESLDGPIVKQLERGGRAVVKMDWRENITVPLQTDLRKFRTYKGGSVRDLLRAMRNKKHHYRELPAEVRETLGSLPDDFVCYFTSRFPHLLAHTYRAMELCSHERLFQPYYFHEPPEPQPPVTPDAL
Summary of the method: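 Inhibition came from the linear-phase cleavage rate of 100 nM XBP1-sequence FAM/BHQ1 RNA, monitored at 485/535 nm over one hour and fitted to IC50. Enzyme: 40 nM unphosphorylated IRE1α kinase-RNase domain (547–977), exposed to compound for 30 min at room temperature before substrate, in HEPES pH 7.5 buffer.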

[6] = molecular target: T2, phosphorylated IRE1α (p-IRE1α) (Homo sapiens, UniProt O75460); assay: FRET-based IRE1α RNase activity assay, phosphorylated IRE1α; assay type: biochemical
T2 construct: Human IRE1α kinase and RNase domain (residues 547–977) was subcloned into pLIB plasmid; His tag (with TEV cleavage site) (N, cleaved yes); made in house; host or cells: Sf9 insect cells, baculovirus (Bac-to-Bac)
T2 sequence (O75460 547-977): as above
Summary of the method: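 Cleavage of a dual-labeled XBP1 RNA (200 nM) was followed kinetically over 1 h at room temperature at 485/535 nm, with initial slopes giving percent inhibition and IC50. Enzyme was 4 nM phosphorylated human IRE1α 547–977 from insect cells, incubated with compound for 30 min before substrate; buffer 20 mM HEPES pH 7.5, KOAc, MgOAc2, DTT, Triton X-100.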

[7] = molecular target: IRE1α (ERN1) (Homo sapiens, UniProt O75460); assay: LanthaScreen Eu kinase binding assay, IRE1α
Chain of IRE1α (ERN1) (O75460 19-977): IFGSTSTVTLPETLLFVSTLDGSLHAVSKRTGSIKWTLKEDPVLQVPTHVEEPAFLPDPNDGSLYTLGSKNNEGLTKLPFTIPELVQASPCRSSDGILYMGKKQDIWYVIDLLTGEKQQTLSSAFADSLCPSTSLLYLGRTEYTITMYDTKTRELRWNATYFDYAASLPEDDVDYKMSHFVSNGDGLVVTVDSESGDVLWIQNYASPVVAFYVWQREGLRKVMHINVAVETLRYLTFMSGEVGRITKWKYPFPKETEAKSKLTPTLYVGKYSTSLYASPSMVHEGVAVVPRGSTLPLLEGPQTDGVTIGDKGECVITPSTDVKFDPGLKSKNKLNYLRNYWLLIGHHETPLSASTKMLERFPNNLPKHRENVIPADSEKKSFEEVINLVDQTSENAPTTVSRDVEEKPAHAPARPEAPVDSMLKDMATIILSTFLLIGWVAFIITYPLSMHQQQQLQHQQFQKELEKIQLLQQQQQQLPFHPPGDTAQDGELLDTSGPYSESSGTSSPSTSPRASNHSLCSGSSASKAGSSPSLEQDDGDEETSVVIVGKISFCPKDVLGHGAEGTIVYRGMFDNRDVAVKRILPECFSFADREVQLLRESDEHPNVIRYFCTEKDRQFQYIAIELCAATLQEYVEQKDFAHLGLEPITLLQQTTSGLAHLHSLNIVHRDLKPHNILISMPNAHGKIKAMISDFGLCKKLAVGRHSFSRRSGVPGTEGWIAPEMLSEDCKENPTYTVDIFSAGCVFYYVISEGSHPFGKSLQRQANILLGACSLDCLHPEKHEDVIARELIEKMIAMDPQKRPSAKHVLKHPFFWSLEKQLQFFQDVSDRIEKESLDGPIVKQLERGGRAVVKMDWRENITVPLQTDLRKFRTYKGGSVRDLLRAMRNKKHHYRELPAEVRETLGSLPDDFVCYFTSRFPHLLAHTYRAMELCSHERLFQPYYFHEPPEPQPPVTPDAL
Protocol: LanthaScreen^TM Eu kinase binding assays were conducted by SelectScreen Kinase Profiling Services (Thermo Fisher) using Alexa Fluor conjugated kinase tracer, tagged kinase protein, and Eu-labeled anti-tag antibody. The binding of the tracer to the kinase will form the tracer-kinase complex, resulting in a high FRET signal with the Eu-labeled anti-tag antibody. Displacement of the tracer by a kinase inhibitor led to a decreased FRET signal. […] Buffer A containing 50 mM HEPES pH 7.5, 0.01% BRIJ-35, 10 mM MgCl2, and 1 mM EGTA was used.
Kinase profiling was conducted by the SelectScreen Kinase Profiling Services (Thermo Fisher), using Z′-LYTE, Adapta, or LanthaScreen Eu Kinase Binding Assay for different kinases. The kinome phylogenetic tree was generated using the KinMap web portal.

[8] = Conc. 50000 nM, duplicates, read-out: IRE1a Kinase Displacement(%)

Row | Compound | A549 viability ([1]; 0.205761 μM) | A549 viability ([1]; 0.617284 μM) | A549 viability ([1]; 1.85185 μM) | A549 viability ([1]; 5.55556 μM) | A549 viability ([1]; 16.6667 μM) | A549 viability ([1]; 50 μM) | HCT 116 viability ([2]; 0.205761 μM) | HCT 116 viability ([2]; 0.617284 μM) | HCT 116 viability ([2]; 1.85185 μM) | HCT 116 viability ([2]; 5.55556 μM) | HCT 116 viability ([2]; 16.6667 μM) | HCT 116 viability ([2]; 50 μM) | MDMB-468 viability ([3]; 0.205761 μM) | MDMB-468 viability ([3]; 0.617284 μM) | MDMB-468 viability ([3]; 1.85185 μM) | MDMB-468 viability ([3]; 5.55556 μM) | MDMB-468 viability ([3]; 16.6667 μM) | MDMB-468 viability ([3]; 50 μM) | HT-29 viability ([4]; 0.205761 μM) | HT-29 viability ([4]; 0.617284 μM) | other results
1 | CCOC(=O)CCc1c(C)n(C(=O)c2ccccc2)c2ccc(Br)cc12 [Compound 105] | 96.121 and 99.380 and 106.104 | 98.783 and 101.411 and 97.532 | 93.780 and 103.281 and 111.131 | 105.404 and 106.621 and 106.322 | 96.476 and 98.393 and 111.165 | 100.539 and 103.017 and 106.219 | 105.479 and 107.511 and 97.213 | 103.773 and 98.693 and 112.553 | 103.848 and 104.852 and 99.659 | 103.874 and 100.174 and 105.429 | 102.870 and 107.248 and 108.126 | 80.557 and 78.801 and 90.315 | 105.638 and 111.110 and 96.794 | 104.047 and 105.002 and 96.794 | 99.021 and 100.357 and 92.786 | 101.502 and 93.231 and 90.241 | 91.131 and 95.903 and 102.075 | 78.343 and 88.459 and 92.404 | 113.182 and 110.499 and 118.448 | 123.469 and 111.597 and 102.062 | HT-29 viability ([4]; 1.85185 μM): 133.369 and 110.621 and 100.802; HT-29 viability ([4]; 5.55556 μM): 113.223 and 102.896 and 116.984; HT-29 viability ([4]; 16.6667 μM): 110.519 and 102.367 and 115.540; HT-29 viability ([4]; 50 μM): 128.693 and 87.059 and 105.213
2 | Cc1c(CCC(=O)O)c2cc(Br)ccc2n1C(=O)c1ccccc1 [Compound 107] | 99.758 and 114.080 and 100.963 | 103.947 and 108.835 and 105.037 | 103.339 and 113.208 and 107.080 | 100.390 and 102.432 and 108.606 | 111.429 and 90.004 and 98.703 | 105.990 and 95.489 and 98.817 | 102.833 and 101.904 and 103.547 | 105.053 and 111.700 and 97.075 | 98.142 and 107.837 and 106.069 | 107.561 and 110.157 and 105.065 | 99.383 and 99.772 and 101.528 | 89.136 and 87.455 and 94.529 | 101.311 and 95.140 and 93.231 | 100.675 and 92.658 and 100.039 | 97.239 and 104.174 and 86.869 | 97.876 and 87.887 and 96.349 | 85.214 and 82.224 and 83.624 | 81.333 and 82.288 and 84.260 | 107.531 and 106.250 | 105.681 and 105.762 | HT-29 viability ([4]; 1.85185 μM): 112.450 and 111.942; HT-29 viability ([4]; 5.55556 μM): 121.172 and 105.478; HT-29 viability ([4]; 16.6667 μM): 115.825 and 113.345; HT-29 viability ([4]; 50 μM): 110.661 and 115.500
3 | COc1ccc2c(c1)c(CCC(=O)O)c(C)n2C(=O)c1ccc(S(=O)(=O)F)cc1 [IA06] |  |  |  |  |  |  |  |  |  |  |  |  |  |  |  |  |  |  |  |  | IC50 ([5]; IRE1a IC50, individual replicates (n1-n4), FRET assay, source data, unit from Fig. 3 / sheet Fig. 2b): 9.65 µM and 7.76 µM and 4.55 µM; IC50 ([5]; IRE1α IC50, FRET assay, RNase activity, mean (± SEM)): 7.32 µM; IC50 ([6]; p-IRE1a IC50, individual replicates (n1-n4), FRET assay, source data, unit from Fig. 3): 11.1 µM and 6.78 µM and 5.45 µM; IC50 ([6]; p-IRE1α IC50, FRET assay, RNase activity, mean (± SEM)): 7.79 µM; inhibition at 50 µM ([7]; 50 μM, read-out: kinase inhibition at highest tested concentration): 23%; inhibition at 50 µM [7, 8]: 17%
4 | COc1ccc2c(c1)c(CCC(=O)O)c(C)n2C(=O)c1cc2ccccc2s1 [IA10] |  |  |  |  |  |  |  |  |  |  |  |  |  |  |  |  |  |  |  |  | IC50 ([5]; FRET assay, dephosphorylated IRE1α, read-out: IRE1α IC50 (RNase activity)): 1.81 µM; IC50 ([5]; FRET assay, source data, unit from Fig. 3 / sheet Fig. 2b, read-out: IRE1a IC50, individual replicates (n1-n4)): 0.727 µM and 2.78 µM and 2.47 µM and 1.25 µM; IC50 ([6]; FRET assay, read-out: p-IRE1α IC50 (RNase activity)): 1.97 µM; IC50 ([6]; FRET assay, source data, unit from Fig. 3, read-out: p-IRE1a IC50, individual replicates (n1-n4)): 3.01 µM and 1.92 µM and 0.985 µM; inhibition at 5.56 µM ([7]; Conc. 5560 nM, duplicates, read-out: IRE1a Kinase Displacement(%)): 35%; inhibition at 16.7 µM ([7]; Conc. 16700 nM, duplicates, read-out: IRE1a Kinase Displacement(%)): 63%; inhibition at 50 µM [7, 8]: 58%; IC50 ([7]; IRE1α kinase domain, read-out: IC50 (kinase binding), LanthaScreen Eu kinase binding): 9.61 µM
